Assay results published in ChEMBL document CHEMBL3352394, “Acinetobacter baumannii OxPhos inhibitors as selective anti-infective agents” (Bioorg Med Chem Lett, 2015).
Converted amounts (≈) assume the structure as drawn. The source made the active and inactive calls. The rule behind the calls is not given here.

What was measured:
[1] = Inhibition of Electron transport protein complex-dependent oxidative phosphorylation system-mediated ATP synthesis in Acinetobacter baumannii membranes; type: cell membranes
[2] = Cytotoxicity against mouse NIH/3T3 cells after 1 hr by MTS reduction assay in absence of serum; type: cell-based; details: NIH3T3, 1 h
[3] = Inhibition of Electron transport protein complex-dependent oxidative phosphorylation system-mediated ATP synthesis in bovine heart submitochondrial particle; design: species or system Bos taurus
HepG2 = assay: Cytotoxicity against human HepG2 cells after 1 hr by MTS reduction assay in absence of serum; type: cell-based; details: HepG2, 1 h
[4] = Selectivity ratio of IC50 for oxidative phosphorylation system-mediated ATP synthesis in bovine heart submitochondrial particle to IC50 for oxidative phosphorylation system-mediated ATP synthesis in Acinetobacter baumannii membranes; type: cell membranes
Acinetobacter baumannii [5] = assay: Antimicrobial activity against Acinetobacter baumannii; type: functional
Acinetobacter baumannii [6] = assay: Antimicrobial activity against Acinetobacter baumannii BAA-1606; type: functional
Acinetobacter baumannii [7] = assay: Antimicrobial activity against Acinetobacter baumannii ATCC 17978; type: functional
[8] = Half life in mouse liver microsomes; type: ADME
Acinetobacter baumannii [9] = assay: Bactericidal activity against Acinetobacter baumannii at 8 times IC50 by time-kill assay; type: functional, organism-based
Acinetobacter baumannii [10] = assay: Inhibition of NDH1-mediated O2 consumption in Acinetobacter baumannii membranes at 50 uM in presence of NADH; type: cell membranes
Pseudomonas aeruginosa = assay: Antimicrobial activity against Pseudomonas aeruginosa ATCC 10145; type: functional
Klebsiella pneumoniae [11] = assay: Antimicrobial activity against Klebsiella pneumoniae ATCC 4352; type: functional
Acinetobacter baumannii [12] = assay: Inhibition of NDH1-mediated O2 consumption in Acinetobacter baumannii membranes at 50 uM in presence of NADH and ascorbate/TMPD; type: cell membranes
Staphylococcus aureus [13] = assay: Antimicrobial activity against Staphylococcus aureus ATCC 25923; type: functional
Escherichia coli [14] = assay: Antimicrobial activity against Escherichia coli ATCC 25922; type: functional
Staphylococcus aureus [15] = assay: Antimicrobial activity against methicillin-resistant Staphylococcus aureus USA 300; type: functional
Klebsiella pneumoniae [16] = assay: Antimicrobial activity against Klebsiella pneumoniae ATCC 13883 in presence of 40% serum; type: functional
Escherichia coli [17] = assay: Antimicrobial activity against Escherichia coli ATCC 25922 in presence of 40% serum; type: functional
Acinetobacter baumannii [18] = assay: Inhibition of NDH1-mediated O2 consumption in Acinetobacter baumannii membranes at 50 to 100 uM in presence of succinate; type: cell membranes
[19] = Half life in human liver microsomes; type: ADME
Klebsiella pneumoniae [20] = assay: Antimicrobial activity against Klebsiella pneumoniae ATCC 13883; type: functional

Row | IC50 [1] | IC50 [3] | Ratio IC50 [4] | MIC (Acinetobacter baumannii [5]) | Compound | IC50 [2] | IC50 (HepG2) | also measured
1 | 9.2 µM | 25.5 µM | 2.8 | > 100 µM | N=c1n(CCCOc2ccc(Cl)cc2Cl)c2ccccc2n1CCN1CCOCC1 | 76 µM | 215 µM | –
2 | 0.9 µM | 0.8 µM | 0.9 | 25 µM (≈ 8.41 µg/mL) | Nc1nc2ccccc2n1CCCOc1ccc(Cl)cc1Cl | – | – | MIC (Acinetobacter baumannii [6]): 6.25 µg/mL (≈ 18.6 µM); MIC (Acinetobacter baumannii [7]): 6.25 µg/mL (≈ 18.6 µM)
3 | 1 µM | 0.8 µM | 0.8 | > 100 µM | N=c1n(CCCOc2ccc(Cl)cc2Cl)c2ccccc2n1CC(=O)N1CCN(c2ccccc2)CC1.O=C(O)C(F)(F)F | 400 µM | 1300 µM | half-life [8]: 25.2 min
4 | – | – | – | – | COLISTIN | – | – | MIC90 (Acinetobacter baumannii [5]): 2 µg/mL
5 | 6 µM | 11.4 µM | 1.9 | > 100 µM | CCN(CC)C(=O)Cn1c(=N)n(CCCOc2ccc(Cl)cc2Cl)c2ccccc21 | 68 µM | 143 µM | –
6 | 5 µM | 47 µM | 9.4 | > 100 µM | CCN(CC)CCNc1nc2ccccc2n1CC(O)COc1ccc(Cl)cc1Cl (configuration not stated) | – | – | –
7 | 3.2 µM | 6.6 µM | 2.1 | 100 µM (≈ 44.1 µg/mL) | N=c1n(CCCOc2ccc(Cl)cc2Cl)c2ccccc2n1CCc1ccccn1 | 36 µM | 60 µM | –
8 | 3.6 µM | 3.1 µM | 0.9 | > 100 µM | N=c1n(CCCOc2ccc(Cl)cc2Cl)c2ccccc2n1CCN1CCCC1=O | 99 µM | 63 µM | –
9 | 7.8 µM | 9.6 µM | 1.2 | > 100 µM | OC(COc1ccc(Cl)cc1Cl)Cn1c(NCCCN2CCOCC2)nc2ccccc21 (configuration not stated) | – | – | –
10 | 41 µM | 106 µM | 2.6 | > 100 µM | OC(CNCc1nc2ccccc2[nH]1)COc1ccc(Cl)cc1Cl (configuration not stated) | – | – | –
11 | 8 µM | 20 µM | 2.5 | 50 µM (≈ 22.5 µg/mL) | CCN(CC)CCCNc1nc2ccccc2n1CCCOc1ccc(Cl)cc1Cl | – | – | –
12 | 6.9 µM | 18.3 µM | 2.7 | 100 µM (≈ 42.1 µg/mL) | CCN(CC)CCn1c(=N)n(CCOc2ccc(Cl)cc2Cl)c2ccccc21 | – | – | Activity (Acinetobacter baumannii [9]): Active
13 | 10 µM | 13 µM | 1.3 | > 100 µM | CCN(CC)CCCNc1nc2ccccc2n1CC(O)COc1ccc(Cl)cc1Cl (configuration not stated) | – | – | –
14 | 1.7 µM | 2.5 µM | 1.5 | 13 µM (≈ 6.02 µg/mL) | CC(C)N(CCn1c(=N)n(CCCOc2ccc(Cl)cc2Cl)c2ccccc21)C(C)C | 19 µM | 39 µM | –
15 | 1.9 µM | 5.6 µM | – | 25 µM (≈ 11.3 µg/mL) | CCN(CC)CCn1c(=N)n(CC(O)COc2ccc(Cl)cc2Cl)c2ccccc21 (configuration not stated) | – | – | inhibition (Acinetobacter baumannii [10]): Active; Activity (Acinetobacter baumannii [9]): Active
16 | 2.1 µM | 4.9 µM | 2.3 | 13 µM (≈ 5.63 µg/mL) | N=c1n(CCCOc2ccc(Cl)cc2Cl)c2ccccc2n1CCN1CCCC1 | 12 µM | 67 µM | –
17 | 12 µM | 21 µM | 1.8 | > 100 µM | CCN(CC)CCn1c(=O)n(CC(O)COc2ccc(Cl)cc2Cl)c2ccccc21 (configuration not stated) | – | – | –
18 | 40 µM | 100 µM | 2.5 | > 100 µM | CCN(CC)CCn1c(N)nc2ccccc21 | – | – | –
19 | 3.8 µM | 1.8 µM | 0.5 | 50 µM (≈ 19.6 µg/mL) | CCCCn1c(=N)n(CCCOc2ccc(Cl)cc2Cl)c2ccccc21 | 28 µM | 72 µM | –
20 | 0.9 µM | 0.9 µM | 1 | 50 µM | N=c1n(CCCOc2ccc(Cl)cc2Cl)c2ccccc2n1Cc1ccc(C(F)(F)F)nc1.O=C(O)C(F)(F)F | 22 µM | 35 µM | half-life [8]: > 90 min
21 | 6.4 µM | 8.8 µM | 1.4 | 50 µM (≈ 18.2 µg/mL) | CCn1c(=N)n(CCCOc2ccc(Cl)cc2Cl)c2ccccc21 | 24 µM | 96 µM | –
22 | 3.6 µM | 22.4 µM | 6.2 | 50 µM (≈ 23.1 µg/mL) | N=c1n(CCCOc2ccc(Cl)cc2Cl)c2ccccc2n1CCCN1CCCCC1 | 37 µM | 83 µM | –
23 | 1.9 µM | 6.1 µM | 3.2 | 100 µM (≈ 44.5 µg/mL) | Cc1noc(C)c1Cn1c(=N)n(CCCOc2ccc(Cl)cc2Cl)c2ccccc21 | 94 µM | 168 µM | –
24 | 2.8 µM | 2.9 µM | 1 | 25 µM (≈ 11.6 µg/mL) | CCCN(CCC)CCn1c(=N)n(CCCOc2ccc(Cl)cc2Cl)c2ccccc21 | 28 µM | 49 µM | –
25 | 18.3 µM | 49.7 µM | 2.7 | > 100 µM | N=c1n(CCCOc2ccc(Cl)cc2Cl)c2ccccc2n1CCn1ccnc1 | 61 µM | 137 µM | –
26 | 1.7 µM | 1 µM | 0.6 | 50 µM (≈ 27.4 µg/mL) | CC(C)(C)OC(=O)N1CCC(CCn2c(=N)n(CCCOc3ccc(Cl)cc3Cl)c3ccccc32)CC1 | 25 µM | 42 µM | –
27 | 2.1 µM | 2.2 µM | 1.1 | 25 µM | N=c1n(CCCOc2ccc(Cl)cc2Cl)c2ccccc2n1CCCc1ccccc1.O=C(O)C(F)(F)F | 36 µM | 65 µM | half-life [8]: 48.2 min
28 | 5 µM | 9.4 µM | 1.9 | 25 µM (≈ 10.5 µg/mL) | CCN(CC)CCn1c(=N)n(CCCc2ccc(Cl)cc2Cl)c2ccccc21 | – | – | Activity (Acinetobacter baumannii [9]): Active
29 | 5.6 µM | 6 µM | 1.1 | > 100 µM | CCOCCOCCn1c(=N)n(CCCOc2ccc(Cl)cc2Cl)c2ccccc21 | 62 µM | 151 µM | –

Row | Compound | IC50 [1] | IC50 [3] | Ratio IC50 [4] | MIC (Acinetobacter baumannii [5]) | IC50 [2] | IC50 (HepG2) | also measured
30 | Br.CCN(CC)CCn1c(=N)n(CCCOc2ccc(Cl)cc2Cl)c2ccccc21 | 0.61 µM | 2.9 µM | 3 | 13 µM | 20 µM | 83 µM | MIC (Pseudomonas aeruginosa): > 22 µg/mL; inhibition (Acinetobacter baumannii [10]): Active; MIC (Klebsiella pneumoniae [11]): 5 µg/mL; inhibition (Acinetobacter baumannii [12]): inactive; Activity (Acinetobacter baumannii [9]): Active; half-life [8]: 13 min; MIC (Staphylococcus aureus [13]): 11 µg/mL; MIC (Escherichia coli [14]): 11 µg/mL; MIC (Staphylococcus aureus [15]): 5 µg/mL; MIC (Klebsiella pneumoniae [16]): > 22 µg/mL; MIC (Escherichia coli [17]): > 22 µg/mL; inhibition (Acinetobacter baumannii [18]): inactive; MIC (Acinetobacter baumannii [6]): 12.5 µg/mL; half-life [19]: 9.2 min; MIC (Klebsiella pneumoniae [20]): 22 µg/mL; MIC (Acinetobacter baumannii [7]): 12.5 µg/mL
